US7062219B2, “Protein fragment complementation assays for high-throughput and high-content screening” (Odyssey Thera Inc., priority 1997, dated 2006)

Key:
Type in all cases: cell-based
PKB/hFt1 complex = experiment: GFP PCA for PKB/hFt1 in COS-1 cells, fluorometric analysis and microscopy; conditions: 10% serum or 20 μg/ml insulin, 30 min
Description: (§1) DNA Constructs. The full-length cDNAs encoding PKB, PDK1, PKCalpha, the catalytic subunit of PKA (PKAc), GSK3beta, BAD, Caspase 9 and FKHRL1 were amplified by PCR and subcloned into the eukaryotic expression vector pMT3 [Kaufman, 1989 #23], 5′ of the F[2] fragment of GFP. GFP[1] corresponds to amino acids 1 to 158 and GFP[2] to amino acids 159 to 239 of GFP and was amplified by PCR from pCMS-EGFP (Clontech). The PKB-GFP[2] fusion was also inserted in a pMT3 vector where the ampicillin resistance gene has been replaced by a chloramphenicol resistance gene (pMT3-chloramphenicol) for the purpose of the cDNA library screen. In all cases, a 10 amino acid flexible linker consisting of (GGGGS)2 (SEQ ID No.1) was inserted between the cDNA and the GFP fragments to assure that the orientation/arrangement of the fusions in space is optimal to bring the protein fragments into close proximity. […]
(§2) COS-1 cells were split in 12-well plates 24 h before transfection. […] The relative amount of reconstituted GFP, a measure of the interaction between the fused protein partners, was detected by fluorometric analysis. […] The background fluorescence intensity corresponding to non-transfected cells was subtracted from the fluorescence intensities of all of the samples. The sub-cellular location of the hFt1/PKB and hFt1/PDK1 protein-protein complexes was also determined by fluorescence microscopy in live cells. […]

PDK1/hFt1 complex = experiment: GFP PCA for PDK1/hFt1 in COS-1 cells, fluorometric analysis and microscopy; conditions: 10% serum or 20 μg/ml insulin, 30 min
Description: as §1, §2

[1] = system: p53/p53 homo-dimerization; experiment: Renilla luciferase PCA (RLuc PCA) for p53/p53 in HEK293T cells
Description: Either the wild type RLuc F1 or the mutant RLuc F1(C124A) can be used in combination with the RLuc F2 fragment provided above to generate luminescent PCAs. The following examples below show the results obtained with the wild-type RLuc fragments. The F1 and F2 fragments described above were created by oligonucleotide synthesis (Blue Heron Biotechnology, Bothell, Wash.) and were designated RL[1] (aa 1–160) and RL[2] (aa 161–311). […]
STAT1/PDK2 served as a negative control PCA. […] Isolated DNAs were quantitated and then normalized to a concentration of 50 ng/microliter.
(§3) The luciferase PCA was constructed to quantify the homo-dimerization of p53 (p53/p53 PCA) and compared to a negative control RLuc PCA (Pdk2/STAT1). […] For each sample, the luminescence released was captured over 10 seconds, with a 2 second delay after addition of substrate to the sample. Data are reported as relative luminescence units (RLU), and have not been normalized to protein content.
For each condition tested, cells were transfected in quadruplicate with 0.1 microgram of total DNA (50 ng each of RL[1]-p53 and RL[2]-p53) using Fugene transfection reagent as above. […] Drug was removed by washing two times with PBS, and cell lysates were prepared as described above prior to performing a Renilla Luciferase luminescence detection assay (Promega). […]

Pdk2:STAT1 = experiment: negative control RLuc PCA (Pdk2/STAT1) in HEK293T cells; conditions: 500 nM CPT for 18 hours
Description: STAT1/PDK2 served as a negative control PCA. The full coding sequences for p53, STAT1 and PDK2 were amplified by PCR from sequence verified full-length cDNAs. The resulting PCR products were desalted, digested with appropriate restriction enzymes to allow directional cloning, and fused in-frame to either the 5′ or 3′-end of RL[1], RL[2], RL[3] or RL[4] through a linker encoding a flexible 10 amino acid peptide (GGGGS)2 (SEQ ID No.1) to assure that the orientation/arrangement of the fusions in space is optimal to bring the fluorescent protein fragments into close proximity. DNAs from recombinant constructs were isolated using Qiagen Turbo BioRobot Prep kits (Qiagen, Chatsworth, Calif.) on a Beckman FX robotic workstation (Beckman Coulter, Fullerton, Calif.). Isolated DNAs were quantitated and then normalized to a concentration of 50 ng/microliter.
as §3, with “content. […]” for “content.”

Compound	amount of the PKB/hFt1 complexes (fluorescence) (PKB/hFt1 complex)	subcellular location of PKB/hFt1 complexes (PKB/hFt1 complex)	amount of the PDK1/hFt1 complexes (fluorescence) (PDK1/hFt1 complex)	subcellular location of PDK1/hFt1 complexes (PDK1/hFt1 complex)	increase in luminescence relative to vehicle (0.1% DMSO) ([1]; 500 nM CPT for 18 hours, HEK293T lysates) [%]	effect on the p53/p53 interaction in the RLuc PCA (in words) ([1]; FIG. 3(B))	effect on luminescence of the negative control PCA (Pdk2:STAT1)
insulin: insulin (Roche Diagnostics), pathway stimulus	increase	redistribution of the protein-protein complexes from the cytosol to the membrane	increase	redistribution of the protein-protein complexes from the cytosol to the membrane	–	–	–
CC[C@@]1(O)C(=O)OCc2c1cc1n(c2=O)Cc2cc3ccccc3nc2-1 [camptothecin]	–	–	–	–	27	induction	no effect
